In PubChem BioAssay AID1745844 (Carcinogenic Potency Database (CPDB), 2022):
Values joined by “and” are separate entries in the source; they are usually repeats but may differ in a detail not shown here. Equal values may be shown once. Active and inactive are the calls of the source. How the calls were made is not given here.

System: rodent lifetime carcinogenesis bioassay, tumor incidence TD50
Assay: chronic cancer bioassays in animals – CPDB, compiled studies (AID 1745844)

CN(C)CCN(C)N=O
TD50 (hamster, strain Syrian Golden, females, by gavage, site: colon, lesion: several types, types named in the paper, dosed 61 weeks, study length 106 weeks): 21 mg/kg/day
TD50 (hamster, strain Syrian Golden, females, by gavage, site: liver, lesion: hepatocellular tumor, dosed 61 weeks, study length 106 weeks): 44 mg/kg/day
TD50 (hamster, strain Syrian Golden, females, by gavage, site: lung, lesion: alveolar/bronchiolar adenoma, dosed 61 weeks, study length 106 weeks): 9.45 mg/kg/day
TD50 (hamster, strain Syrian Golden, females, by gavage, site: nasal mucosa, lesion: malignant tumor, dosed 61 weeks, study length 106 weeks): 9.45 mg/kg/day
TD50 (hamster, strain Syrian Golden, females, by gavage, site: nasal mucosa, lesion: several types, types named in the paper, dosed 61 weeks, study length 106 weeks): 2.76 mg/kg/day
TD50 (hamster, strain Syrian Golden, males, by gavage, site: colon, lesion: adenocarcinoma, dosed 61 weeks, study length 106 weeks): 38.7 mg/kg/day
TD50 (hamster, strain Syrian Golden, males, by gavage, site: liver, lesion: hepatocellular tumor, dosed 61 weeks, study length 106 weeks): 11.7 mg/kg/day
TD50 (hamster, strain Syrian Golden, males, by gavage, site: nasal mucosa, lesion: malignant tumor, dosed 61 weeks, study length 106 weeks): 38.7 mg/kg/day
TD50 (hamster, strain Syrian Golden, males, by gavage, site: nasal mucosa, lesion: several types, types named in the paper, dosed 61 weeks, study length 106 weeks): 6.25 mg/kg/day

Nc1cc([N+](=O)[O-])ccc1C(=O)O
carcinogen call (mouse, strain B6C3F1, females, in feed, site: any site (literature study), lesion: several types, types named in the paper, dosed 78 weeks, study length 93 weeks): negative (inactive)
TD50 (mouse, strain B6C3F1, females, in feed, site: lung, lesion: alveolar/bronchiolar adenoma + alveolar/bronchiolar carcinoma, dosed 78 weeks, study length 93 weeks): 2560 mg/kg/day
TD50 (mouse, strain B6C3F1, males, in feed, site: all sites, lesion: hemangioma + hemangiosarcoma, dosed 78 weeks, study length 93 weeks): 12600 mg/kg/day (inactive)
TD50 (mouse, strain B6C3F1, males, in feed, site: any site (literature study), lesion: several types, types named in the paper, dosed 78 weeks, study length 93 weeks): 1660 mg/kg/day
carcinogen call (rat, strain Fischer 344, females, in feed, site: any site (literature study), lesion: several types, types named in the paper, dosed 78 weeks, study length 105 weeks): negative (inactive)
TD50 (rat, strain Fischer 344, females, in feed, site: liver, lesion: hepatocellular adenoma + hepatocellular carcinoma + neoplastic nodule, dosed 78 weeks, study length 105 weeks): 11800 mg/kg/day
carcinogen call (rat, strain Fischer 344, males, in feed, site: any site (literature study), lesion: several types, types named in the paper, dosed 78 weeks, study length 105 weeks): negative (inactive)
TD50 (rat, strain Fischer 344, males, in feed, site: liver, lesion: hepatocellular adenoma + hepatocellular carcinoma + neoplastic nodule, dosed 78 weeks, study length 105 weeks): 3710 mg/kg/day

O=C(Nc1cccc2c(=O)cc(-c3nn[nH]n3)oc12)c1ccc(OCCCCc2ccccc2)cc1
carcinogen call (rat, strain Jcl:SD, females, by gavage, site: liver, lesion: one or several types, types not named, dosed 52 weeks, study length 52 weeks): negative (inactive)
carcinogen call (rat, strain Jcl:SD, females, by gavage, site: liver, lesion: one or several types, types not named, dosed 52 weeks, study length 56 weeks): negative (inactive)
carcinogen call (rat, strain Jcl:SD, males, by gavage, site: liver, lesion: neoplastic nodule, dosed 52 weeks, study length 56 weeks): negative (inactive)
carcinogen call (rat, strain Jcl:SD, males, by gavage, site: liver, lesion: one or several types, types not named, dosed 52 weeks, study length 52 weeks): negative (inactive)

NNC(=O)c1ccncc1
TD50 (hamster, strain Syrian Golden, females, in drinking water, site: forestomach, lesion: papilloma, dosed 121 weeks, study length 121 weeks): 575 mg/kg/day (inactive)
carcinogen call (hamster, strain Syrian Golden, males, in drinking water, site: liver, lesion: hemangioma, dosed 130 weeks, study length 130 weeks): negative (inactive)
TD50 (mouse, strain A, males, by gavage, site: liver, lesion: carcinoma, dosed 79 weeks, study length 79 weeks): 159 mg/kg/day
TD50 (mouse, strain A, males, by gavage, site: lung, lesion: carcinoma, dosed 79 weeks, study length 79 weeks): 206 mg/kg/day
TD50 (mouse, strain A, males, by gavage, site: several sites, sites named in the paper, lesion: carcinoma, dosed 79 weeks, study length 79 weeks): 219 mg/kg/day
TD50 (mouse, strain AKR, females, in drinking water, site: lung, lesion: one or several types, types not named, dosed 70 weeks, study length 70 weeks): 89.6 mg/kg/day (inactive)
carcinogen call (mouse, strain AKR, males, in drinking water, site: liver, lesion: hemangioma, dosed 59 weeks, study length 59 weeks): negative (inactive)
TD50 (mouse, strain AKR, males, in drinking water, site: lung, lesion: one or several types, types not named, dosed 59 weeks, study length 59 weeks): 202 mg/kg/day (inactive)
TD50 (mouse, strain C3H (MTV+), females, in drinking water, site: lung, lesion: adenoma, dosed 72 weeks, study length 72 weeks): 755 mg/kg/day
TD50 (mouse, strain C3H (MTV+), males, in drinking water, site: lung, lesion: adenoma, dosed 72 weeks, study length 72 weeks): 219 mg/kg/day
TD50 (mouse, strain CBA/Cb/Se, females, by gavage, site: liver, lesion: hepatoma, dosed 36 weeks, study length 84 weeks): 187 mg/kg/day (inactive)
TD50 (mouse, strain CBA/Cb/Se, females, by gavage, site: lung, lesion: several types, types named in the paper, dosed 36 weeks, study length 84 weeks): 11.2 mg/kg/day
TD50 (mouse, strain CBA/Cb/Se, males, by gavage, site: liver, lesion: hepatoma, dosed 36 weeks, study length 74 weeks): 165 mg/kg/day (inactive)
TD50 (mouse, strain CBA/Cb/Se, males, by gavage, site: lung, lesion: several types, types named in the paper, dosed 36 weeks, study length 74 weeks): 12.2 mg/kg/day
TD50 (mouse, strain Not specified, both sexes, by gavage, site: any site (literature study), lesion: several types, types named in the paper, dosed 52 weeks, study length 52 weeks): 14.1 mg/kg/day
TD50 (mouse, strain Not specified, both sexes, by gavage, site: lung, lesion: adenoma, dosed 52 weeks, study length 52 weeks): 19.3 mg/kg/day
TD50 (mouse, strain Not specified, both sexes, by gavage, site: mammary gland, lesion: adenocarcinoma, dosed 52 weeks, study length 52 weeks): 80.9 mg/kg/day
carcinogen call (mouse, strain Swiss albino, females, in drinking water, site: liver, lesion: hemangioma, dosed 80 weeks, study length 80 weeks): negative (inactive)
carcinogen call (mouse, strain Swiss albino, females, in drinking water, site: liver, lesion: hemangioma, dosed 101 weeks, study length 106 weeks): negative (inactive)
TD50 (mouse, strain Swiss albino, females, in drinking water, site: lung, lesion: adenocarcinoma, dosed 80 weeks, study length 80 weeks): 435 mg/kg/day
TD50 (mouse, strain Swiss albino, females, in drinking water, site: lung, lesion: adenoma, dosed 80 weeks, study length 80 weeks): 189 mg/kg/day
TD50 (mouse, strain Swiss albino, females, in drinking water, site: lung, lesion: adenoma, dosed 101 weeks, study length 106 weeks): 386 mg/kg/day
TD50 (mouse, strain Swiss albino, females, in drinking water, site: lung, lesion: several types, types named in the paper, dosed 80 weeks, study length 80 weeks): 153 mg/kg/day
carcinogen call (mouse, strain Swiss albino, males, in drinking water, site: liver, lesion: hemangioma, dosed 80 weeks, study length 80 weeks): negative (inactive)
TD50 (mouse, strain Swiss albino, males, in drinking water, site: lung, lesion: adenoma, dosed 80 weeks, study length 80 weeks): 124 mg/kg/day
TD50 (mouse, strain Swiss albino, males, in drinking water, site: lung, lesion: adenoma, dosed 86 weeks, study length 87 weeks): 104 mg/kg/day
TD50 (mouse, strain Swiss, both sexes, by gavage, site: lung, lesion: adenocarcinoma, dosed 95 weeks, study length 95 weeks): 28.8 mg/kg/day
TD50 (mouse, strain Swiss, both sexes, by gavage, site: lung, lesion: one or several types, types not named, dosed 97 weeks, study length 97 weeks): 24.5 mg/kg/day
TD50 (mouse, strain Swiss, females, by gavage, site: liver, lesion: carcinoma, dosed 81 weeks, study length 83 weeks): 88.6 mg/kg/day
TD50 (mouse, strain Swiss, females, by gavage, site: lung, lesion: carcinoma, dosed 81 weeks, study length 83 weeks): 88.6 mg/kg/day
TD50 (mouse, strain Swiss, females, by gavage, site: lung, lesion: carcinoma, dosed 83 weeks, study length 83 weeks): 53.1 mg/kg/day
TD50 (mouse, strain Swiss, females, by gavage, site: several sites, sites named in the paper, lesion: carcinoma, dosed 81 weeks, study length 83 weeks): 39.9 mg/kg/day
TD50 (mouse, strain Swiss, females, by gavage, site: several sites, sites named in the paper, lesion: carcinoma, dosed 83 weeks, study length 83 weeks): 53.1 mg/kg/day
TD50 (mouse, strain Swiss, males, by gavage, site: liver, lesion: carcinoma, dosed 79 weeks, study length 79 weeks): 88.8 mg/kg/day and 71.3 mg/kg/day
TD50 (mouse, strain Swiss, males, by gavage, site: liver, lesion: carcinoma, dosed 85 weeks, study length 85 weeks): 211 mg/kg/day
TD50 (mouse, strain Swiss, males, by gavage, site: lung, lesion: carcinoma, dosed 79 weeks, study length 79 weeks): 41.1 mg/kg/day and 39.2 mg/kg/day
TD50 (mouse, strain Swiss, males, by gavage, site: lung, lesion: carcinoma, dosed 85 weeks, study length 85 weeks): 28.9 mg/kg/day
TD50 (mouse, strain Swiss, males, by gavage, site: several sites, sites named in the paper, lesion: carcinoma, dosed 79 weeks, study length 79 weeks): 25.7 mg/kg/day and 21.2 mg/kg/day
TD50 (mouse, strain Swiss, males, by gavage, site: several sites, sites named in the paper, lesion: carcinoma, dosed 85 weeks, study length 85 weeks): 24 mg/kg/day
TD50 (rat, strain Cb/Sc, females, in drinking water, site: mammary gland, lesion: fibroadenoma, dosed 48 weeks, study length 64 weeks): 120 mg/kg/day
TD50 (rat, strain Cb/Sc, males, in drinking water, site: liver, lesion: one or several types, types not named, dosed 48 weeks, study length 84 weeks): 199 mg/kg/day
TD50 (rat, strain Cb/Sc, males, in drinking water, site: lung, lesion: several types, types named in the paper, dosed 48 weeks, study length 84 weeks): 1070 mg/kg/day

CCN(C#N)N=O
TD50 (rat, strain MRC-Wistar, females, in drinking water, site: any site (literature study), lesion: several types, types named in the paper, dosed 52 weeks, study length 90 weeks): 3.17 mg/kg/day
TD50 (rat, strain MRC-Wistar, females, in drinking water, site: respiratory system, lesion: one or several types, types not named, dosed 52 weeks, study length 90 weeks): 2.91 mg/kg/day
TD50 (rat, strain MRC-Wistar, males, in drinking water, site: respiratory system, lesion: one or several types, types not named, dosed 52 weeks, study length 90 weeks): 4.99 mg/kg/day
